Source: patent US20090234122A1, “CYANINE DYE AND OPTICAL RECORDING MEDIUM” (priority 2005, published 2009)

Key:
Format in all cases: physicochemical
[1] = Lightfastness of cyanine dye thin membranes under xenon lamp irradiation; conditions: thin membrane on glass, 180 W/m^2, 5.5 hours
Procedure: The solution was in conventional manner dropped to homogeneity over the surface of either side of a polished glass substrate, 5 cm×5 cm, followed by rotating the glass substrate at a rate of 1,000 rpm/min for one minute to homogeneously apply the solution over the substrate and then drying the substrate by blowing hot air or cold air in this order to form a thin membrane of any one of the cyanine dyes of the present invention.
The cyanine dyes were measured for transmittance (T0) at the wavelengths of their absorption maxima (about 450 nm), while a 7.5 W xenon lamp was fixed apart from the glass substrate at a prescribed intervals and irradiated therewith (irradiated energy of 180 W/m^2 when measured on the surface of the substrate) for 5.5 hours while blowing cold air to the substrate. Thereafter, the substrates were immediately measured for transmittance (T) at the wavelengths of absorption maxima of the cyanine dyes and the residual percentages (%) thereof were calculated by assigning the obtained transmittances T and T0 the equation 1. In parallel, similarly as in the above, thin membranes, as controls 1 to 4, formed with any one of the compounds represented by Chemical Formulae 33, 37, 40 and 41; thin membranes, as controls 5 to 8, formed with any one of the compounds represented by Chemical Formulae 33, 37, 40 and 41 in combination with the azo metal complex presented by Chemical Formula 34 as a light resistant improver; and thin membranes, as controls 9 to 10, formed with any one of the compounds represented by Chemical Formulae 42 and 43, and these thin membranes were similarly treated as in the above, and measured for transmittances T and T0 at wavelengths of their absorption maxima for use as controls.

[2] = Decomposition point on DSC analysis; conditions: onset temperature of exothermic peak induced by decomposition
Text: The decomposition points of organic dye compounds such as cyanine dyes can be determined on, for example, commonly used differential scanning calorimetric analysis (abbreviated as “DSC”, hereinafter).
The melting point means a peak top temperature of endothermic peak during temperature increase on DSC analysis, while the decomposition point means an onset temperature of exothermic peak induced by decomposition during temperature increase on DSC analysis. These are applicable to the following measurements.

[3] = Solubility in organic solvents at 20° C.; conditions: N,N-dimethylformamide, methanol, TFP, methylethylketone, acetonitrile, chloroform
[4] = transmittance at absorption maximum (about 450 nm), lightfastness improver: Non
[5] = in combination with lightfastness improver Chemical Formula 34 (azo metal complex)

Residual percentage (%) of dye [1, 4] [%] | Residual percentage (%) of dye [1, 5] [%] | decomposition point [2] | SMILES | solubility in organic solvents [3]
15.3 | – | – | CN1C(=CC2=[N+](C)c3ccccc3C2(C)C)C(C)(C)c2ccccc21 [Chemical Formula 42] | –
29.4 | 89.9 | around 212 °C | CCN1C(=CC2=[N+](CC)c3ccccc3C2(C)Cc2ccccc2)C(C)(Cc2ccccc2)c2ccccc21 (stereo not shown) [Chemical Formula 33] | –
99.1 | – | ~273 °C | CN1C(=CC2=[N+](C)c3ccccc3C2(C)Cc2ccccc2)C(C)(C)c2ccccc21 (stereo not shown) [Chemical Formula 20] | satisfactory solubilities with no actual hindrance
31.2 | 90.3 | around 238 °C | CN1C(=CC2=[N+](C)c3ccccc3C2(C)Cc2ccccc2)C(C)(C)c2ccccc21 (stereo not shown) [Chemical Formula 37] | –
35.6 | 91.5 | around 227 °C | CN1C(=CC2=[N+](C)c3ccccc3C23CCCCC3)C2(CCCCC2)c2ccccc21 [Chemical Formula 40] | –
33.8 | 93.8 | around 240 °C | CN1C(=CC2=[N+](C)c3ccccc3C23CCCCC3)C(C)(C)c2ccccc21 [Chemical Formula 41] | –
